Experimental data taken from patent publication US7678810B2, “Thiazole derivative” (Taisho Pharmaceutical Co., Ltd, priority 2004, dated 2010).
Structures can show the parent of a compound that is named as a salt.

| SMILES | melting point [°C] |
| --- | --- |
| CCC(CC)c1nc(-c2nc(C)cs2)c(-c2ccc3ncsc3c2)[nH]1 (as salt: HCl) [Compound 62] | 207 to 212 |
| Cc1csc(-c2nc(CCCCC(=O)Nc3ccccc3)[nH]c2-c2ccc3ncsc3c2)n1 (as salt: HCl) [Compound 172] | 105 to 117.5 |
| C=CCOC(=O)NCc1nc(-c2nc(C)cs2)c(-c2ccc3ncsc3c2)[nH]1 (as salt: HCl) [Compound 192] | 174 to 175 |
| CCN(CC)C(=O)OCc1nc(-c2nc(C)cs2)c(-c2ccc3ncsc3c2)[nH]1 (as salt: HCl) [Compound 237] | 119 to 124 |
| Cc1csc(-c2nc(CCCN3CCOCC3)[nH]c2-c2ccc3c(c2)OCO3)n1 (as salt: salt) [Compound 76] | 118.5 to 128.5 |
| NC(=O)c1ccc(-c2nc(-c3nccs3)c(-c3ccc4c(c3)OCO4)[nH]2)cc1 [Compound 2] | 240 to 249 |
| NC(=O)c1ccc(-c2nc(-c3nccs3)c(-c3ccccn3)[nH]2)cc1 [Compound 4] | 255.5 to 256 |
| Cc1csc(-c2nc(-c3ccc(C#N)cc3)[nH]c2-c2ccc(F)cc2)n1 [Compound 17] | 283.5 to 286 |
| Cc1csc(-c2nc(-c3ccc(C(N)=O)cc3)[nH]c2-c2ccc(F)cc2)n1 [Compound 18] | 281 to 281.5 |
| Cc1csc(-c2nc(N)[nH]c2-c2ccc3c(c2)OCO3)n1 [Compound 19] | 205.5 to 208 |
| Cc1csc(-c2nc(NC(=O)c3ccccc3)[nH]c2-c2ccc3c(c2)OCO3)n1 [Compound 22] | 223 to 225 |
| Cc1csc(-c2nc(CCN)[nH]c2-c2ccc3c(c2)OCO3)n1 [Compound 27] | 155.5 to 157.5 |
| CCCC(=O)NCCc1nc(-c2nc(C)cs2)c(-c2ccc3c(c2)OCO3)[nH]1 [Compound 28] | 148 to 150 |
| CCCC(=O)NCCCCc1nc(-c2nc(C)cs2)c(-c2ccc3c(c2)OCO3)[nH]1 [Compound 33] | 132 to 133 |
| CCCNC(=O)CCc1nc(-c2nc(C)cs2)c(-c2ccc3c(c2)OCO3)[nH]1 [Compound 38] | 106.5 to 108.5 |
| CCCNC(=O)CCCc1nc(-c2nc(C)cs2)c(-c2ccc3c(c2)OCO3)[nH]1 [Compound 40] | 75 to 79 |
| CCCC(=O)NCc1nc(-c2nc(C)cs2)c(-c2ccc(O)cc2)[nH]1 [Compound 101] | 135.5 to 136.5 |
| CCCC(=O)NCc1nc(-c2nc(C)cs2)c(-c2ccc(OC)c(OCc3ccccc3)c2)[nH]1 [Compound 104] | 176 to 177 |

| SMILES | melting point [°C] |
| --- | --- |
| Cc1csc(-c2nc(CNC(=O)CC(C)C)[nH]c2-c2ccc3ncsc3c2)n1 [Compound 107] | 160 to 160.5 |
| Cc1csc(-c2nc(CNC(=O)C3CCC3)[nH]c2-c2ccc3ncsc3c2)n1 [Compound 108] | 199 to 200 |
| Cc1csc(-c2nc(CNC(=O)C(C)(C)C)[nH]c2-c2ccc3ncsc3c2)n1 [Compound 109] | 229 to 229.5 |
| Cc1csc(-c2nc(CNC(=O)CCC(C)C)[nH]c2-c2ccc3ncsc3c2)n1 [Compound 110] | 172.5 to 173.5 |
| Cc1csc(-c2nc(CNC(=O)C3CCCC3)[nH]c2-c2ccc3ncsc3c2)n1 [Compound 112] | 156.5 to 161 |
| Cc1csc(-c2nc(CNC(=O)CN(C)C)[nH]c2-c2ccc3ncsc3c2)n1 [Compound 114] | 211.5 to 212.5 |
| Cc1csc(-c2nc(CNC(=O)CCN(C)C)[nH]c2-c2ccc3ncsc3c2)n1 [Compound 115] | 150 to 150.5 |
| Cc1csc(-c2nc(CNC(=O)C3CCN(C)CC3)[nH]c2-c2ccc3ncsc3c2)n1 [Compound 117] | 204 to 205.5 |
| CNCC(=O)NCc1nc(-c2nc(C)cs2)c(-c2ccc3ncsc3c2)[nH]1 [Compound 118] | 200.5 to 203.5 |
| Cc1csc(-c2nc(CNC(=O)CCO)[nH]c2-c2ccc3ncsc3c2)n1 [Compound 122] | 215 to 218.5 |
| COCCCC(=O)NCc1nc(-c2nc(C)cs2)c(-c2ccc3ncsc3c2)[nH]1 [Compound 125] | 186.5 to 190 |
| Cc1csc(-c2nc(CNC(=O)COCCO)[nH]c2-c2ccc3ncsc3c2)n1 [Compound 126] | 193 to 194 |
| COCCC(=O)NCc1nc(-c2nc(C)cs2)c(-c2ccc3ncsc3c2)[nH]1 [Compound 127] | 154.5 to 155.5 |
| Cc1csc(-c2nc(CNC(=O)C3CCOC3)[nH]c2-c2ccc3ncsc3c2)n1 (stereo not shown) [Compound 128] | 174 to 175 |
| CCCCNC(=O)c1nc(-c2nc(C)cs2)c(-c2ccc3ncsc3c2)[nH]1 [Compound 140] | 209.5 to 212.5 |
| COC(=O)CCc1nc(-c2nc(C)cs2)c(-c2ccc3ncsc3c2)[nH]1 [Compound 142] | 168.5 to 170.5 |
| Cc1csc(-c2nc(CCC(=O)NC(C)C)[nH]c2-c2ccc3ncsc3c2)n1 [Compound 145] | 217.5 to 218 |

The next lines start with the values.

| melting point [°C] | SMILES |
| --- | --- |
| 140 to 148 | CC(O)c1nc(-c2nc(-c3ccc(C(N)=O)cc3)[nH]c2-c2ccc3c(c2)OCO3)cs1 (stereo not shown) [Compound 6] |
| 153 to 159 | CC(=O)c1nc(-c2nc(-c3ccc(C(N)=O)cc3)[nH]c2-c2ccc3c(c2)OCO3)cs1 [Compound 7] |
| 259.5 to 261.5 | CCc1csc(-c2nc(-c3ccc(C(N)=O)cc3)[nH]c2-c2ccc3c(c2)OCO3)n1 [Compound 11] |
| 273 to 275.5 | NC(=O)c1ccc(-c2nc(-c3nc(Br)cs3)c(-c3ccc4c(c3)OCO4)[nH]2)cc1 [Compound 13] |
| 169 to 173 | CC(=O)Nc1nc(-c2nc(C)cs2)c(-c2ccc3c(c2)OCO3)[nH]1 [Compound 20] |
| 165.5 to 169.5 | COc1ccc(CC(=O)NCc2nc(-c3nc(C)cs3)c(-c3ccc4c(c3)OCO4)[nH]2)cc1 [Compound 26] |
| 134.5 to 138.5 | CCCC(=O)NCCCc1nc(-c2nc(C)cs2)c(-c2ccc3c(c2)OCO3)[nH]1 [Compound 30] |
| 199.6 to 200 | CCCNC(=O)c1nc(-c2nc(C)cs2)c(-c2ccc3c(c2)OCO3)[nH]1 [Compound 35] |
| 222 to 222.5 | Cc1csc(-c2nc(C(=O)Nc3ccccc3)[nH]c2-c2ccc3c(c2)OCO3)n1 [Compound 36] |
| 174 to 175 | COc1ccc(CNC(=O)CCCCc2nc(-c3nc(C)cs3)c(-c3ccc4c(c3)OCO4)[nH]2)cc1 [Compound 44] |
| > 300 | Cc1csc(-c2nc(-c3ccc(C(N)=O)cc3)[nH]c2-c2ccc(O)cc2)n1 [Compound 49] |
| 129 to 130.5 | CCCCCCc1nc(-c2nc(C)cs2)c(-c2ccc3ncsc3c2)[nH]1 [Compound 64] |
| 212.5 to 213.5 | CCC(C)(C)C(=O)NCc1nc(-c2nc(C)cs2)c(-c2ccc3ncsc3c2)[nH]1 [Compound 111] |
| 200.5 to 205.5 | Cc1csc(-c2nc(CNC(=O)CCCN(C)C)[nH]c2-c2ccc3ncsc3c2)n1 [Compound 116] |
| 214.5 to 215 | Cc1csc(-c2nc(CNC(=O)CN)[nH]c2-c2ccc3ncsc3c2)n1 [Compound 120] |
| 134 to 135.5 | COCCOCC(=O)NCc1nc(-c2nc(C)cs2)c(-c2ccc3ncsc3c2)[nH]1 [Compound 123] |
| 185 to 185.5 | Cc1csc(-c2nc(CNC(=O)C3CCCO3)[nH]c2-c2ccc3ncsc3c2)n1 (stereo not shown) [Compound 130] |
